Several values for one entry are separate records, joined by “and”; a condition that tells them apart may be missing. Equal values may be shown once.
Legend:
C57Bl/6J mice = assay type: in vivo; conditions: 10 mg/kg i.p., 30 min before test, compared to vehicle
Text: (i.p.) before testing. The EPM was composed of 4 opaque-white arms (2 opposite arms closed, 2 opposite arms open), arranged in a plus shape, with an open center. The dimensions were as follows; maze elevation (38.7cm), open arm (L:30.5 cm, W:5 cm, H:0 cm), closed arm (L:30.5 cm, W:5 cm, H:15.2 cm) and center (5 cm x 5 cm). The experiment mouse was placed in the center of the maze and allowed to freely explore the maze for 8-min (50lux), while being tracked with an overhead camera. Open and closed arm times were recorded and collected by Biobserve Viewer3 software. The percentage of time spent in the open arms as compared to closed arms and center time was calculated and expressed as a percent of time spent in the open or closed arms of the maze.

in vivo = assay: in vivo; parameters: species or system male C57Bl/6 mice
Method: Microsomal stability assays were conducted by Cyprotex Ltd (Macclesfield, UK).
Blood samples (approximately 60 µL; n=3 mice per time-point) were taken at 0.08, 0.25, 0.5, 1, 2, 4, 6 and 8 hrs. Immediately after collection of blood, brain samples were collected from the set of three mice at each time point. Plasma samples were separated by centrifugation of whole blood, while brain samples were homogenized in ice-cold phosphate buffer saline (pH 7.4). Total homogenate volume was three times the brain weight. Plasma and homogenates were stored below -70±10 °C until analysis. The extraction procedure for plasma/brain samples and the spiked plasma/brain calibration standards were identical. To a 25 µL volume of study sample (dilution factor applied to some samples) or spiked plasma/brain calibration standard, 100 µL of internal standard prepared in acetonitrile (Glipizide, 500 ng/mL) was added, except for blank where 100 µL of acetonitrile was added. […] Pharmacokinetic parameters were calculated using the non-compartmental analysis tool of Phoenix WinNonlin® (Version 7.0). Areas under the concentration time curve (AUC) values were calculated by linear trapezoidal rule.

Male Sprague Dawley rats = conditions: 10 mg/kg i.p.
Method: Male Sprague Dawley rats (PD>63) were trained on a CAR protocol and responding following drug exposure was determined. […] Animals were trained to learn a house light (CS) as predictive of an avoidable 0.6mA scrambled foot shock (US). Each session consisted of 50 trials and animals avoided >70% of trials on the final acquisition session were tested for CAR during vehicle baseline, drug exposure, and re-emergence. In addition to CAR testing, both temperature and catalepsy were recorded in these animals (measure of potential CB1R agonism). Temperature: recorded on first day of drug exposure, prior to injection and 60-90-min. following drug exposure.

DATKO mice = assay: Pre-pulse inhibition in DATKO mice; assay type: in vivo; conditions: 10 mg/kg i.p.
Method: (§1) Pre-Pulse Inhibition (PPI): PPI of the acoustic startle response was measured on day 3, via SR-LAB equipment and software from San Diego Instruments. Accelerometers were calibrated to 700±5 mV and output voltages were amplified and analyzed for voltage changes using SR Analysis (San Diego Instruments, San Diego, CA, USA), and exported as an excel file. Background white noise was maintained at 65dB. PPI was measured in a 30-min test with 80 randomized trials of: (1) 10 trials pulse alone (2) 10 trials pre-pulse alone (for each pre-pulse), (3) 10 trials pre-pulse plus pulse (for each pre-pulse), and (4) 10 trials no pulse. 5 pulse alone trials were performed before and after the 80 trials, totaling 90 trials per run. The pre-pulse (4dB, 8dB, or 16dB) was presented 100ms prior to the startle pulse […]. The inter-stimulus interval (ISI) was randomized between 5 and 20s. Experimental mice were placed in a cylindrical tube on a platform in a soundproof chamber. Mice were allowed to acclimatize in the chamber and to the background noise for 300s, followed by 5 consecutive pulse alone trials, then by 80 randomized trials (as described above) and then 5 consecutive pulse alone trials. Pre-pulse inhibition was measured as a decrease in the amplitude of startle response to a 100dB acoustic startle pulse, following each pre-pulse (4dB, 8dB and 16dB).

CB1R = CB1R (Homo sapiens, UniProt P21554); assay: cell-based; assay type: cell-based
CB1R, sequence (P21554 whole entry): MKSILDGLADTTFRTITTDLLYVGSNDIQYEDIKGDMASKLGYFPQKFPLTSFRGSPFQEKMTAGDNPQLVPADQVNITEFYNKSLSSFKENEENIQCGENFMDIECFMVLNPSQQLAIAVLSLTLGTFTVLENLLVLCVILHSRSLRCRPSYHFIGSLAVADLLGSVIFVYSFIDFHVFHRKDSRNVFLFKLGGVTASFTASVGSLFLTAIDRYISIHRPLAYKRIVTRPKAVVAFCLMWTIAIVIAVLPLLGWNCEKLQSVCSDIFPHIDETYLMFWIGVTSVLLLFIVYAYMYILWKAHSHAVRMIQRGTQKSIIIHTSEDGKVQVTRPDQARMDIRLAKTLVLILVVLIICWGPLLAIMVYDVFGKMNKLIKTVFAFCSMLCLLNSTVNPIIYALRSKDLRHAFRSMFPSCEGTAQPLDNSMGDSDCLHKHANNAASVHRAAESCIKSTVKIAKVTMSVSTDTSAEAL
Method: The cAMP BRET experiments were performed as previously described. Briefly, hCB1R HEK293 cells were transfected with 5 µg/10 cm dish of the CAMYEL biosensor using polyethylenimine. After 24 h, the cells were plated into white 96-well plates (PerkinElmer) at a density of 60,000 cells/well.
Cyclic AMP accumulation was measured using a DiscoverX HitHunter® cAMP Assay for Small Molecules (DiscoverX, Fremont, CA). hCB1R CHO cells were seeded at a density of 40,000 cells/well in 96-well white plates and grown overnight at 37 °C, 5% CO2 in a humidified incubator. […] Vehicle concentration was 1% DMSO, 0.1% BSA. Following agonist incubation, 15 µl of cAMP antibody reagent and 60 µl of working cAMP detection solution (containing 19 parts cAMP lysis buffer, 5 parts Substrate Reagent 1, 1 part Substrate Reagent 2 and 25 parts of cAMP Solution D) were added to all wells. Assay plates were incubated in the dark for 1 hr at room temperature, followed by addition of 60 µl cAMP solution A to all wells and incubation for 3 hr at room temperature in the dark. Plates were read using a GloMax Discover plate-reader (Promega, Madison, WI).

GluN1KD mice = assay: Pre-pulse inhibition in GluN1KD mice; assay type: in vivo; conditions: ABM300 10 mg/kg, OLA 1 mg/kg i.p.
Method: as §1

Dopamine D2 = Dopamine D2 (Homo sapiens, UniProt P14416); assay: SafetyScreen44 panel: Dopamine D2; assay type: binding; conditions: 1 µM
Dopamine D2, sequence (P14416 other isoform, or with tags, fused parts or gaps): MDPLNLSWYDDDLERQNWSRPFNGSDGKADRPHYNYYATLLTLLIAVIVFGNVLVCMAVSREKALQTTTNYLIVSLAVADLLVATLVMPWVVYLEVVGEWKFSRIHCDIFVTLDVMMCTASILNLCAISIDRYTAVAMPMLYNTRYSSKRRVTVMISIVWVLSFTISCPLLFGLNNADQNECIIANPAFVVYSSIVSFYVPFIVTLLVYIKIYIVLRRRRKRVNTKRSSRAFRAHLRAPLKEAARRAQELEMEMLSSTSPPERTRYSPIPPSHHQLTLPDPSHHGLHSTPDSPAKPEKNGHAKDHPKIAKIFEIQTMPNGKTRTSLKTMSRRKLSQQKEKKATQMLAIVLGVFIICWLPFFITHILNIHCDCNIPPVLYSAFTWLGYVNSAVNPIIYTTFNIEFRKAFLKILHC
Method: The screen assesses the selectivity of the compound on a diverse panel of targets that includes GPCRs, drug transporters, ion channels, nuclear receptors, kinases, and other non-kinase enzymes. The screen employs radioligand binding or enzyme assays for these 44 targets.
For receptor assays, binding was calculated as percent inhibition of the binding of a radioactively labeled ligand specific for each target. For enzyme assays, the inhibition effect was calculated as percent inhibition of control enzyme activity. Tests were performed in duplicate, and results are averages of those two tests. See https://www.eurofinsdiscoveryservices.com.

5HT2A = molecular target: T1, 5HT2A (Homo sapiens, UniProt P28223); assay: SafetyScreen44 panel: 5HT2A; assay type: binding; conditions: 1 µM
T1 construct: Eurofins Cerep
T1 sequence (P28223 whole entry): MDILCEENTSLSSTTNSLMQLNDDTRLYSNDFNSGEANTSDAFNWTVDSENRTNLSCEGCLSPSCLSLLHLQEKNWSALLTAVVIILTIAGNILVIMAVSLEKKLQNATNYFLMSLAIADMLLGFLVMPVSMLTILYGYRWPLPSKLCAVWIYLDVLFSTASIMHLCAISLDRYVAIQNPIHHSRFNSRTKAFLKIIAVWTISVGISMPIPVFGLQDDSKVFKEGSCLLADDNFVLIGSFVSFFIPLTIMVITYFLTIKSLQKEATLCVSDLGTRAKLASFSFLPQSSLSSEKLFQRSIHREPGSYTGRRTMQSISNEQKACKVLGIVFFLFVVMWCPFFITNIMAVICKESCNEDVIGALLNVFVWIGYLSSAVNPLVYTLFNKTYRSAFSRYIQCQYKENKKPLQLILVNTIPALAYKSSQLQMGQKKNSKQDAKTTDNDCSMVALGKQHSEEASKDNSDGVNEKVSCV
Text: See https://www.eurofinsdiscoveryservices.com.

[1] = male, C57Bl/6, mouse, ip, 10 mg/kg

## CCc1c(-c2nnc(Nc3ccccc3)o2)[nH]c2ccc(Cl)cc12 [ABM300, 5-(5-chloro-3-ethyl-1H-indol-2-yl)-N-phenyl-1,3,4-oxadiazol-2-amine]
C57Bl/6J mice
  time spent in the open arms (EPM): did not affect
In vivo; male, C57Bl/6, mouse, 10 mg/kg i.p., at 30 min, read-out: brain concentration
  concentration at 30 min: 0.374 ± 0.039 µg/mL
In vivo; [1]
  AUC(0-t): 2.05 µg·h/mL
  Cmax: 866 ng/mL and 412 ng/g
In vivo; male, C57Bl/6, mouse, ip, 10 mg/kg, Tmax
  Tmax: 0.5 h
In vivo; mouse, ip, 10 mg/kg
  AUClast: 1577.92 ng·h/g
In vivo; mouse, ip, 10 mg/kg i.p., male C57Bl/6 mice
  half-life: ~2 h
Male Sprague Dawley rats
  catalepsy: did not induce catalepsy
  changes in body temperature: did not induce catalepsy, or changes in body temperature
DATKO mice
  sensorimotor gating deficits (PPI): rescue of the PPI deficit at the 16 dB pre-pulse interval
DATKO mice; data not shown
  acoustic startle response: Neither genotype, nor treatment with ABM300, had an effect
CB1R
  IC50: 0.379 µM and 0.355 µM and 0.38 µM
GluN1KD mice
  acoustic startle response: did not respond
  sensorimotor gating deficits (PPI; 4, 8, 16 dB): did not respond
Dopamine D2
  binding to Dopamine D2: did not display any significant binding
5HT2A
  binding to 5HT2A: did not display any significant binding
